Source: paper PMC12363935, “Unc-51 Like Kinase 3 (ULK3) is essential for autophagy and cell survival in multiple myeloma” (Research Square, 2025)
Values joined by “and” are separate entries in the source; they are usually repeats but may differ in a detail not shown here. Equal values may be shown once.

Test system: primary CD138+ MM cells
Assay: EMMA ex vivo platform, live cell imaging, 96 hours, collagen matrix with bone marrow stroma and patient plasma
Format: cell-based
Parameters: scale not given here
Text: For clinical robustness, we tested the activity of MA9 in MM patient samples using our ex vivo mathematical myeloma advisor (EMMA) platform (Supplementary Table 1). […]
For these assays, we used a novel EMMA platform developed at Moffitt. Further details are included in the supplemental Materials. […]
400 Ex vivo drug sensitivity characterization
401 An ex vivo assay was used to quantify the chemosensitivity of primary MM cells. Fresh BM
402 aspirate cells were enriched for CD138+ expression using Miltenyi (Bergisch Gladbach, Germany)
MM cells (CD138+) were seeded in Corning
404 Cell BIND 384 well plates (Corning, NY) with collagen I and previously established human-
407 inactivated), penicillin/streptomycin, and patient-derived plasma (10%, freshly obtained from
409 added using a robotic plate handler so that every drug/combination was tested at 5 (fixed
410 concentration ratio, for combinations) concentrations (1:3 serial dilution) in two replicates.
411 Negative controls (supplemented growth media with and without the vehicle control dimethyl
412 sulfoxide [DMSO]) were included, as well as positive controls for each drug (cell line MM1.S at
413 highest drug concentration). Plates were placed in a motorized stage microscope (EVOS Auto FL,
414 Life Technologies, Carlsbad, CA) equipped with an incubator and maintained at 5% CO2 and 37
415 °C. […]
Digital image analysis computes the percent
418 viability of MM cells for each time point and experimental condition (drug and concentration)

CC(C)C[C@H](NC(=O)[C@H](Cc1ccccc1)NC(=O)c1cnccn1)B(O)O [BTZ, bortezomib]
AUC (Pt648, LRMM): 48.724 | AUC (Pt652, LRMM): 65.980 | AUC (Pt655, LRMM): 29.968 | AUC (Pt663, LRMM): 45.417 | AUC (Pt665, LRMM): 47.552 | AUC (Pt666, LRMM): 37.470 | AUC (Pt669, ERMM): 37.041 | AUC (Pt672, NDMM): 45.751 | AUC (Pt677, NDMM): 30.916 and 33.959 | AUC (Pt680, ERMM): 39.728 and 39.652 | AUC (Pt685, ERMM): 34.249 | AUC (Pt689, NDMM): 40.257 | AUC (Pt691, LRMM): 38.965 | AUC (Pt693, SMOL): 87.905 | AUC (Pt694, NDMM): 31.313 | AUC (Pt695, LRMM): 46.540 | AUC (Pt697, NDMM): 44.112 | AUC (Pt700, NDMM): 42.763 and 44.093 | AUC (Pt707, LRMM): 60.814 | AUC (Pt737, MGUS): 35.864 | AUC (Pt738, NDMM): 46.001 | AUC (Pt740, SMOL): 32.547 | AUC (Pt745, NDMM): 47.650 | AUC (Pt852, NDMM): 23.262 | AUC (Pt853, ERMM): 63.604 and 64.834 | AUC (Pt856, NDMM): 36.749 | AUC (Pt866, NDMM): 36.635 | AUC (Pt875, NDMM): 45.303 | AUC (Pt888, LRMM): 100.000 | AUC (Pt893, LRMM): 100.000 | AUC (Pt899, SMOL): 59.818 | AUC (Pt906, NDMM): 59.784 | AUC (Pt909, LRMM): 29.196 | AUC (Pt912, PCL): 26.800 | AUC (Pt917, LRMM): 78.984 | AUC (Pt920, LRMM): 42.040 | AUC (Pt923, LRMM): 45.019 | AUC (Pt932, LRMM): 28.145 | AUC (Pt933, LRMM): 39.573 | AUC (Pt935, NDMM): 31.629 | AUC (Pt936, LRMM): 45.292 | AUC (Pt937, NDMM): 46.111 and 46.768 | AUC (Pt940, LRMM): 43.043 | AUC (Pt956, NDMM): 64.107 and 61.177 | AUC (Pt957, LRMM): 82.570 | AUC (Pt961, NDMM): 70.805 and 67.849

CC(C)C[C@H](NC(=O)[C@H](CCc1ccccc1)NC(=O)CN1CCOCC1)C(=O)N[C@@H](Cc1ccccc1)C(=O)N[C@@H](CC(C)C)C(=O)[C@@]1(C)CO1 [CFZ, carfilzomib]
AUC (Pt620, NDMM): 36.78 | AUC (Pt622, LRRMM): 32.89 | AUC (Pt625, NDMM): 36.25 | AUC (Pt636, ERRMM): 53.52 | AUC (Pt638, NDMM): 44.52 | AUC (Pt639, NDMM): 52.97 | AUC (Pt648, LRMM): 48.435 | AUC (Pt652, LRMM): 67.924 | AUC (Pt653, LRMM): 60.160 | AUC (Pt655, LRMM): 37.063 and 37.06 | AUC (Pt663, LRMM): 48.477 and 48.48 | AUC (Pt665, LRMM): 52.826 and 52.83 | AUC (Pt666, LRMM): 40.984 and 40.98 | AUC (Pt669, ERMM): 48.58 | AUC (Pt672, NDMM): 56.496 and 56.5 | AUC (Pt677, NDMM): 38.487 and 37.936 | AUC (Pt680, ERMM): 43.762 and 43.248 and 43.76 | AUC (Pt685, ERMM): 44.316 and 44.32 | AUC (Pt689, NDMM): 43.578 | AUC (Pt691, LRMM): 40.781 and 40.78 | AUC (Pt693, SMOL): 97.333 and 97.33 | AUC (Pt694, NDMM): 49.029 and 49.03 | AUC (Pt695, LRMM): 54.535 and 54.53 | AUC (Pt697, NDMM): 45.229 and 45.23 | AUC (Pt700, NDMM): 48.455 and 54.337 and 54.34 | AUC (Pt707, LRMM): 60.754 and 60.75 | AUC (Pt718, SMOL): 58.31 | AUC (Pt737, MGUS): 45.483 | AUC (Pt738, NDMM): 52.453 and 52.45 | AUC (Pt740, SMOL): 45.352 | AUC (Pt745, NDMM): 68.911 | AUC (Pt765, LRRMM): 59.77 | AUC (Pt773, LRRMM): 32.99 | AUC (Pt808, LRRMM): 47.11 | AUC (Pt814, LRRMM): 62.23 | AUC (Pt821, NDMM): 54.79 | AUC (Pt822, ERRMM): 62.96 | AUC (Pt825, NDMM): 59.86 | AUC (Pt830, ERRMM): 61.41 | AUC (Pt849, LRRMM): 99.06 | AUC (Pt852, NDMM): 28.629 | AUC (Pt853, ERMM): 62.247 and 58.956 | AUC (Pt856, NDMM): 48.272 and 48.27 | AUC (Pt865, LRMM): 60.759 and 60.76 | AUC (Pt866, NDMM): 75.161 and 75.16 | AUC (Pt875, NDMM): 41.904 and 41.9 | AUC (Pt885, NDMM): 51.382 and 45.860 and 51.38 | AUC (Pt888, LRMM): 51.003 and 51 | AUC (Pt893, LRMM): 92.226 | AUC (Pt899, SMOL): 53.140 | AUC (Pt906, NDMM): 58.079 and 58.08 | AUC (Pt909, LRMM): 32.841 | AUC (Pt912, PCL): 23.632 | AUC (Pt917, LRMM): 75.009 | AUC (Pt920, LRMM): 39.820 | AUC (Pt923, LRMM): 54.728 and 54.73 | AUC (Pt932, LRMM): 43.433 | AUC (Pt933, LRMM): 54.495 and 54.49 | AUC (Pt935, NDMM): 46.326 and 46.33 | AUC (Pt936, LRMM): 50.956 | AUC (Pt937, NDMM): 51.703 and 49.814 | AUC (Pt940, LRMM): 63.001 | AUC (Pt945, LRMM): 53.027 | AUC (Pt948, LRMM): 57.94 | AUC (Pt951, ERMM): 62.878 and 62.88 | AUC (Pt956, NDMM): 68.610 and 64.376 | AUC (Pt957, LRMM): 82.913 | AUC (Pt961, NDMM): 64.332 and 67.807
